# Experimental data as given in patent US9006442B2, “Cannabinoid receptor modulators” (Lupin Limited, priority 2011, dated 2015).
# Read-outs that look alike come from different tables or passages of the source.
# Molecular target: hCB2 (Homo sapiens, UniProt P34972)
# Experiment: cAMP determination in functional hCB2-CHO stable cells (HTRF)
# Type: cell-based
# Method: In-Vitro Assay Method for Determination of cAMP in Functional hCB2—CHO Stable Cells:
# Recombinant CHO-hCB2 cells (procured from Perkin Elmer Inc. USA) were propagated and maintained in Ham's F-12 complete medium containing 10% heat inactivated FBS (Sigma.UK) and 1× penstrep. For assay, 0.1×10^6 to 1.0×10^6 CHO-hCB2 cells were seeded in T-25 flask and grown to mid-log phase in culture media without antibiotics for 2-3 days. […] The test is performed in 96^1/2 area black well plates. For agonist testing, 20 μl cells/well were mixed with 20 μl of sample and 10 μl of forskolin (with final concentration of 10 μM) and incubated for 20 to 40 min at room temperature in incubator. The plate was then processed for the cAMP determination using cAMP Femto-2 HTRF kit (Cisbio, Germany) as per the manual.
# The concentration of compound required to stimulate a half-maximal response (EC50) was determined using the GraphPad Prism software (version 5).
# [1] = CHO-hCB2 cells, cAMP, forskolin 10 μM, agonist testing, read-out: EC50 Range
# Chain of hCB2 (P34972 whole entry): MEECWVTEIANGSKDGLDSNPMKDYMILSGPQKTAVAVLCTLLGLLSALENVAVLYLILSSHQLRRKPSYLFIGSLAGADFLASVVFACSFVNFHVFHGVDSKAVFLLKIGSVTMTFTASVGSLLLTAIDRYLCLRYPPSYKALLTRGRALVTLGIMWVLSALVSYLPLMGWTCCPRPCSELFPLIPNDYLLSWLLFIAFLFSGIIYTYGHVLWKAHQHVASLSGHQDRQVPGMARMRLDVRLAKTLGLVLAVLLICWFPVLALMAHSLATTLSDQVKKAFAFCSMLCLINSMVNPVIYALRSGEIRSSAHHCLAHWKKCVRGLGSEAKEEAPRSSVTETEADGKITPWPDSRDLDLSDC
Compound,EC50 [nM],EC50 [1] [nM]
"CCN(C)C(=O)c1ccc(Nc2cccc(C(F)(F)F)c2F)c2cccc(C)c12 [compound 413, N-Ethyl-4-((2-fluoro-3-(trifluoromethyl)phenyl)amino)-N,8-dimethyl-1-naphthamide]",< 10,
"O=C(c1ccc(Nc2ccc(Cl)cc2Cl)c2ccccc12)N1CCOCC1 [Example-197, (4-((2,4-Dichlorophenyl)amino)naphthalen-1-yl)(morpholino)methanone]",10 to 1000,
"Cc1ccc(Cl)cc1Nc1ncc(C(=O)N2CCOCC2)c2c(C)cccc12 [Example-88, (1-((5-Chloro-2-methylphenyl)amino)-5-methylisoquinolin-4-yl)(morpholino)methanone]",,< 10
"CCN(CC)C(=O)c1cnc(Nc2cccc(C(F)(F)F)c2F)c2cccc(Cl)c12 [compound 328, 5-Chloro-N,N-diethyl-1-((2-fluoro-3-(trifluoromethyl)phenyl)amino) isoquinolin-4-carboxamide]",,< 10
"CN(C)C(=O)c1cnc(Nc2cccc(F)c2C(F)(F)F)c2cccc(Cl)c12 [compound 333, 5-Chloro-1-((3-fluoro-2-(trifluoromethyl)phenyl)amino)-N,N-di methylisoquinolin-4-carboxamide]",,< 10
"Cc1cccc2c(Nc3cc(F)cc(F)c3)ncc(C(=O)N3CCOCC3)c12 [Example-3, (1-((3,5-Difluorophenyl)amino)-5-methylisoquinolin-4-yl)(morpholino)methanone]",,< 10
"CCN(C)C(=O)c1cnc(Nc2cccc(Cl)c2Cl)c2cccc(Cl)c12 [compound 363, 5-Chloro-1-((2,3-dichlorophenyl)amino)-N-ethyl-N-methyl isoquinolin-4-carboxamide]",< 10,
"O=C(c1ccc(Nc2cccc(C(F)(F)F)c2)c2ccccc12)N1CCOCC1 [Example-201, Morpholino(4-((3-(trifluoromethyl)phenyl)amino)naphthalen-1-yl)methanone]",< 10,
"Cc1cccc2c(Nc3cccc(Cl)c3)ncc(C(=O)N3CC4CC4C3)c12 (stereo not drawn) [Example-75, 3-Azabicyclo[3.1.0]hexan-3-yl(1-((3-chlorophenyl)amino)-5-methylisoquinolin-4-yl)methanone]",< 10,
"CCN(C)C(=O)c1cnc(Nc2cccc(C(F)(F)F)c2C)c2cccc(Cl)c12 [compound 331, 5-Chloro-N-ethyl-N-methyl-1-((2-methyl-3-(trifluoromethyl)phenyl)amino)isoquinolin-4-carboxamide]",< 10,
"O=C(c1cnc(Nc2cccc(Cl)c2)c2cccc(C3CC3)c12)N1CCOCC1 [Example-114, (1-((3-Chlorophenyl)amino)-5-cyclopropylisoquinolin-4-yl)(morpholino)methanone]",< 10,
"Cc1cccc2c(Nc3cccc(C(F)(F)F)c3)ncc(C(=O)N3CCCCC3)c12 [Example-23, (5-Methyl-1-(((3-trifluoromethyl)phenyl)amino)isoquinolin-4-yl)(piperidin-1-yl)methanone]",< 10,
"CCN(C)C(=O)c1cnc(Nc2cccc(F)c2C(F)(F)F)c2cccc(Cl)c12 [compound 335, 5-Chloro-N-ethyl-1-((3-fluoro-2-(trifluoromethyl)phenyl)amino)-N-methylisoquinolin-4-carboxamide]",,< 10
"Cc1c(F)cccc1Nc1ncc(C(=O)N2CC3CC3C2)c2c(C)cccc12 (stereo not drawn) [Example-77, 3-Azabicyclo[3.1.0]hexan-3-yl(1-((3-fluoro-2-methylphenyl)amino)-5-methylisoquinolin-4-yl)methanone]",,< 10
"O=C(c1cnc(Nc2cccc(C(F)(F)F)c2)c2cccc(C3CC3)c12)N1CCOCC1 [Example-118, (5-Cyclopropyl-1-((3-(trifluoromethyl)phenyl)amino)isoquinolin-4-yl)(morpholino)methanone]",< 10,
"Cc1cccc2c(Nc3cc(F)ccc3F)ncc(C(=O)N3CCCCC3)c12 [Example-34, (1-((2,5-Difluorophenyl)amino)-5-methylisoquinolin-4-yl)(piperidin-1-yl)methanone]",,< 10
"Cc1cccc2c(Nc3cc(F)cc(F)c3)ncc(C(=O)N3CCCCC3)c12 [Example-24, (1-((3,5-Difluorophenyl)amino)-5-methylisoquinolin-4-yl)(piperidin-1-yl)methanone]",,< 10
"CCN(C)C(=O)c1ccc(Nc2cccc(C)c2C)c2cccc(C)c12 [compound 453, 4-((2,3-Dimethylphenyl)amino)-N-ethyl-N,8-dimethyl-1-naphthamide]",,< 10
"Cc1c(Cl)cccc1Nc1ncc(C(=O)N2CC3CC(C2)O3)c2c(C)cccc12 [Example-65, 6-Oxa-3-azabicyclo[3.1.1]heptan-3-yl(1-((3-chloro-2-methylphenyl)amino)-5-methylisoquinolin-4-yl)methanone]",< 10,
"CCN(C)C(=O)c1cnc(Nc2cccc(C(F)(F)F)c2F)c2cccc(Cl)c12 [compound 334, 5-Chloro-N-ethyl-1-((2-fluoro-3-(trifluoromethyl)phenyl)amino)-N-methylisoquinolin-4-carboxamide]",,< 10

Compound,EC50 [nM],EC50 [1] [nM]
"Cc1cccc2c(Nc3cccc(CF)c3)ncc(C(=O)N3CCCCC3)c12 [Example-37, (1-((3-(Fluoromethyl)phenyl)amino)-5-methylisoquinolin-4-yl)(piperidin-1-yl)methanone]",,< 10
"Cc1c(Cl)cccc1Nc1ncc(C(=O)N(C)C)c2c(Cl)cccc12 [compound 332, 5-Chloro-1-((3-chloro-2-methylphenyl)amino)-N,N-dimethyl isoquinolin-4-carboxamide]",< 10,
"CCc1cccc2c(Nc3cccc(C(F)(F)F)c3F)ncc(C(=O)N3CCCCC3)c12 [Example-129, (5-Ethyl-1-((2-Fluoro-3-(trifluoromethyl)phenyl)amino)isoquinolin-4-yl)(piperidin-1-yl)methanone]",,< 10
"CCN(CC)C(=O)c1cnc(Nc2cccc(C(F)(F)F)c2C)c2cccc(Cl)c12 [compound 325, 5-Chloro-N-N-diethyl-1-((2-methyl-3-(trifluoromethyl)phenyl)amino) isoquinolin-4-carboxamide]",< 10,
"COC(=O)c1cccc(Nc2ccc(C(=O)N3CCOCC3)c3c(C)cccc23)c1 [compound 408, Methyl 3-((5-methyl-4-(morpholin-4-carbonyl)naphthalen-1-yl)amino) benzoate]",,< 10
"Cc1cccc2c(Nc3cccc(Cl)c3)ncc(C(=O)N3CCCC3)c12 [Example-102, (1-((3-Chlorophenyl)amino)-5-methylisoquinolin-4-yl)(pyrrolidin-1-yl)methanone]",10 to 1000,
"Cc1cccc2c(Nc3cccc(F)c3F)ccc(C(=O)N3CC4CC4C3)c12 (stereo not drawn) [Example-166, 3-Azabicyclo[3.1.0]hexan-3-yl(4-((2,3-difluorophenyl)amino)-8-methylnaphthalen-1-yl)methanone]",,< 10
"Cc1cccc2c(Nc3cccc(F)c3)ncc(C(=O)N3CCCCC3)c12 [Example-21, (1-((3-Fluorophenyl)amino)-5-methylisoquinolin-4-yl)(piperidino)methanone]",< 10,
"Cc1cccc2c(Nc3ccc(F)c(Cl)c3)ncc(C(=O)N3CC4CC(C3)O4)c12 [Example-60, 6-Oxa-3-azabicyclo[3.1.1]heptan-3-yl(1-((3-chloro-4-fluorophenyl)amino)-5-methylisoquinolin-4-yl)methanone]",10 to 1000,
"Cc1c(Cl)cccc1Nc1ncc(C(=O)N2CCOCC2)c2c(C)cccc12 [Example-87, (1-((3-Chloro-2-methylphenyl)amino)-5-methylisoquinolin-4-yl)(morpholino)methanone]",< 10,
"COc1cccc(Nc2ccc(C(=O)N3CCCCC3)c3c(C)cccc23)c1 [Example-161, (4-((3-Methoxyphenyl)amino)-8-methylnaphthalen-1-yl)(piperidin-1-yl)methanone]",,< 10
"CCN(C)C(=O)c1ccc(Nc2cccc(Cl)c2C)c2cccc(C)c12 [compound 456, 4-((3-Chloro-2-methylphenyl)amino)-N-ethyl-N,8-dimethyl-1-naphthamide]",,< 10
"CCN(CC)C(=O)c1cnc(Nc2cccc(Cl)c2F)c2cccc(C)c12 [compound 282, 1-((3-Chloro-2-fluorophenyl)amino)-N,N-diethyl-5-methyl isoquinolin-4-carboxamide]",10 to 1000,
"Cc1cc(Nc2ncc(C(=O)N3CCCCC3)c3c(C)cccc23)ccc1F [Example-94, (1-((4-Fluoro-3-methylphenyl)amino)-5-methylisoquinolin-4-yl)(piperidin-1-yl)methanone]",< 10,
"CCN(CC)C(=O)c1cnc(Nc2cccc(Cl)c2C)c2cccc(Cl)c12 [compound 322, 5-Chloro-1-((3-chloro-2-methylphenyl)amino)-N,N-diethyl isoquinolin-4-carboxamide]",< 10,
"CC1COCC(C)N1C(=O)c1ccc(Nc2cc(F)cc(F)c2)c2ccccc12 (stereo not drawn) [Example-190, (4-((3,5-Difluorophenyl)amino)naphthalen-1-yl)(3,5-dimethylmorpholino)methanone]",,10 to 1000
"Cc1cccc2c(Nc3cccc(Cl)c3F)ncc(C(=O)N3CC4CC(C3)O4)c12 [Example-61, 6-Oxa-3-azabicyclo[3.1.1]heptan-3-yl(1-((3-chloro-2-fluorophenyl)amino)-5-methylisoquinolin-4-yl)methanone]",< 10,
"Cc1cc(Nc2ncc(C(=O)N3CCOCC3)c3c(C)cccc23)ccc1F [Example-85, (1-((4-Fluoro-3-methylphenyl)amino)-5-methylisoquinolin-4-yl)(morpholino)methanone]",,< 10
O=C(c1cnc(Nc2cccc(F)c2F)c2cccc(C3CC3)c12)N1CCOCC1 [Example-116],,< 10
